Test results from patent US5670530A, “Anti-cancer composition comprising rhodacyanine compound and cyclodextrin” (Fuji Photo Film Co., Ltd., priority 1995, dated 1997).
Blank lines part the entries; values can stand above or below the molecule they belong to.

Tests used:
[1] = Solubility of rhodacyanine compounds in human serum at 37° C.
[2] = Solubility of Compound 1 in aqueous solution containing various solubilizers (Example 1); format: physicochemical; conditions: for solubility at 24 h: 25° C.
Protocol: Solubilizers, β-CD, polyethylene glycol 400 and Pluronic F60, were added to demineralized water respectively to prepare solutions having concentrations shown in TABLE 1. […] The test tubes were fixed in thermostatic bath controlled at 25° C. and allowed to stand for 24 hours.

[3] = Solubility of Compound 1 in rat serum with HP-β-CD (Example 2); format: physicochemical; conditions: HP-β-CD 0 to 45 w/v %, 30 minutes, 25° C.
Protocol: (§1) Solutions of HP-β-CD in demineralized water having concentrations varying from 0 w/v % to 45 w/v % were prepared as described in EXAMPLE 1. […] The results obtained are shown graphically in FIGS. 1 and 2.

[4] = Solubility of Compound 1 in fetal calf serum with HP-β-CD (Example 2); format: physicochemical; conditions: HP-β-CD 0 to 45 w/v %, 30 minutes, 25° C.
Protocol: as §1

[5] = Solubility of Compound 1 in aqueous solutions of β-CD, HP-β-CD and γ-CD (Example 3); format: physicochemical
[6] = Precipitation of Compound 1 in rat blood with HP-β-CD (Example 5); format: physicochemical; conditions: HP-β-CD concentration increases
[7] = tested on: human colon carcinoma cells (CX-1); assay: Tumor inhibition in nude mice implanted with human colon carcinoma cells CX-1 (Example 8); format: in vivo, human cells in nude mouse (Swiss nu/nu); conditions: for Tumor Inhibition: day 1, 2, 4, 6, 7, 8, 9
Protocol: 2,500,000 human colon carcinoma cells (CX-1) were injected subcutaneously into each nude mouse (Swiss nu/nu) obtained from Taconic Farm and the mice were randomly allocated into a control group (five mice) and treatment groups (five mice per group).
The anti-cancer compositions containing HP-β-CD were prepared using the following method. HP-β-CD (45 g) was mixed with 100 ml of sterilized, double distilled water and stirred for four hours. Each of the compounds to be tested (20 mg) was mixed with 10 ml of HP-β-CD solution and sonicated for 60 minutes in the dark. This solution was then diluted in 5% glucose to yield a final compound concentration of 0.5 mg/ml, and further sonicated for 60 minutes in the dark to assure that the compound was completely dissolved. The anti-cancer compositions not containing HP-β-CD were also prepared using the same method except that 5% glucose solution was used instead of the HP-β-CD solution.
The control group received an equivalent volume of 5% glucose solution.
When the growth of tumors in the control group reached the exponential phase and the size of the tumor was palpable (usually 20 to 30 days after tumor implantation), the experiments were terminated. Tumors in each mouse were excised and weighed using an analytical balance. Total tumor weight in each group from five mice was calculated. Per cent tumor inhibition between the treated group and the control group was then calculated for each group.

[8] = Solubility of Compounds 2, 4 and 5 in aqueous solution containing various cyclodextrin compounds (Example 4); format: physicochemical; conditions: for Solubility in water with cyclodextrin compounds: β-CD, HP-β-CD, γ-CD
Protocol: as §1
Aqueous solutions of β-CD, HP-β-CD and γ-CD were prepared and solubility of Compounds 2, 4 and 5 in each of the aqueous solutions having the concentration varing as shown in TABLE 2 was determined as described in EXAMPLE 2. For the purpose of comparison, solubility of Compounds 2, 4 and 5 in water was also determined.

human melanoma LOX = assay: Survival of nude mice implanted with human melanoma LOX (Example 9); format: in vivo, human cells in nude mice

SMILES: CCn1c(=CC2=[N+](CC)CCS2)sc(=C2SC3=C(CCCC3)N2C)c1=O
solubility [1]: > 1000 µg/mL

SMILES: CCn1c(=CC2=[N+](CC)CCS2)sc(=C2Sc3ccccc3N2C)c1=O
solubility [1]: > 1000 µg/mL

SMILES: CCn1c(=Cc2scc(C)[n+]2CC)sc(=C2Sc3ccccc3N2C)c1=O
solubility [1]: > 1000 µg/mL

SMILES: CN1C(=c2sc(=Cc3oc4ccccc4[n+]3C)n(C)c2=O)Sc2ccccc21
solubility [1]: 300 µg/mL

SMILES: CCn1c(=Cc2sc3ccccc3[n+]2CC)sc(=CC=C2SC=C(C)N2C)c1=O
solubility [1]: < 1000 µg/mL

SMILES: CCn1c(=Cc2oc3c4ccccc4ccc3[n+]2CC)sc(=C2Sc3ccccc3N2C)c1=O
solubility [1]: < 100 µg/mL

SMILES: CCn1c(=Cc2sc3c4ccccc4ccc3[n+]2CC)sc(=CC=C2Sc3ccc4ccccc4c3N2C)c1=O [Compound 1]
solubility at 24 h ([2]; water only): 1860 µg/mL
solubility at 24 h ([2]; water, peg 400 50%, organic solvent or mixture, Polyethylene glycol 400, 50 w/v %): 870 µg/mL
solubility at 24 h ([2]; water, Pluronic F60 0.02 w/v %): 3230 µg/mL
solubility at 24 h ([2]; water, Pluronic F60 0.2 w/v %): 3130 µg/mL
solubility at 24 h ([2]; water, β-CD 1.5 w/v %): 8170 µg/mL
increase of solubility in water by β-CD ([2]; β-CD vs compound itself in water): 4.4 times
Compound 1 dissolved in serum (FIGS. 1 and 2) [3]: much dissolved in the serums, depending on the increase in HP-β-CD concentration
Compound 1 dissolved in serum (FIGS. 1 and 2) [4]: much dissolved in the serums, depending on the increase in HP-β-CD concentration
Solubility in water with cyclodextrins (FIG. 3) ([5]; β-CD, HP-β-CD and γ-CD): all cyclodextrin compounds used improve solubility of Compound 1 in water
Solubility in water with γ-CD (FIG. 3) ([5]; γ-CD): γ-CD greatly improves the solubility
precipitation of Compound 1 in blood [6]: effectively inhibited
Tumor Inhibition ([7]; 2 mg/kg i.p., HP-β-CD added): 48.8%
Tumor Inhibition ([7]; 2 mg/kg i.p., HP-β-CD non-added): 29.1%
Tumor Inhibition ([7]; 4 mg/kg i.p., HP-β-CD added): 30.2%
Tumor Inhibition ([7]; 4 mg/kg i.p., HP-β-CD non-added): 20.9%
tumor inhibition, with vs without HP-β-CD ([7]; solution containing HP-β-CD vs no HP-β-CD): higher tumor inhibition than that containing no HP-β-CD

SMILES: CCN1C(=CC=c2sc(=CC3=[N+](CC)CCS3)n(CC)c2=O)C=Cc2ccccc21 [Compound 2]
Solubility in water [8]: 0.03 mM/dl
Solubility in aqueous solution of CD ([8]; β-CD 0.80 mM/dl): 0.55 mM/dl
Solubility in water with cyclodextrin compounds [8]: improved by all of the cyclodextrin compounds used

SMILES: CCn1c(=C2CCC[n+]3c2sc2ccccc23)sc(=C2Sc3ccccc3N2C)c1=O [Compound 4]
Solubility in aqueous solution of CD ([8]; HP-β-CD 4.2 mM/dl): 0.03 mM/dl
Solubility in water [8]: 0.001 mM/dl
Solubility in water with cyclodextrin compounds [8]: improved by all of the cyclodextrin compounds used

SMILES: CCn1c(=Cc2oc3ccccc3[n+]2CC)sc(=C2Sc3ccccc3N2C)c1=O [Compound 7]
T/C (human melanoma LOX; 10 mg/kg i.p., HP-β-CD added, day 1, 4, 8, 12, 16, 21, 25): 200%
T/C (human melanoma LOX; 10 mg/kg i.p., HP-β-CD non-added, day 1, 4, 8, 12, 16, 21, 25): 175%

SMILES: CCN1C(=CC=c2sc(=Cc3cc[n+](CC)c4ccccc34)n(CC)c2=O)C=Cc2ccccc21 [Compound 8]
T/C (human melanoma LOX; 20 mg/kg i.p., HP-β-CD added, day 1, 2, 3, 4, 8, 9): 227%
T/C (human melanoma LOX; 20 mg/kg i.p., HP-β-CD non-added, day 1, 2, 3, 4, 8, 9): 183%

The next lines start with results.

Solubility in water [8]: ~ 0 mM/dl
Solubility in aqueous solution of CD ([8]; γ-CD 1.0 mM/dl): 0.02 mM/dl
SMILES: CCn1c(=Cc2sc3c4ccccc4ccc3[n+]2CC)sc(=C2Sc3ccc4ccccc4c3N2C)c1=O [Compound 5]
Solubility in water with cyclodextrin compounds [8]: improved by all of the cyclodextrin compounds used

solubility [1]: < 100 µg/mL
SMILES: CCN1C(=CC=c2sc(=CC3=[N+](CC)CCS3)n(CC)c2=O)C=Cc2ccccc21 [drawing 16]

solubility [1]: < 100 µg/mL
SMILES: CCn1c(=Cc2oc3ccccc3[n+]2CC)sc(=C2Sc3ccccc3N2C)c1=O [drawing 17]

solubility [1]: < 100 µg/mL
SMILES: CCN1C(=CC=c2sc(=Cc3cc[n+](CC)c4ccccc34)n(CC)c2=O)C=Cc2ccccc21 [drawing 20]

solubility [1]: < 100 µg/mL
SMILES: CCn1c(=Cc2sc3c4ccccc4ccc3[n+]2CC)sc(=CC=C2Sc3ccc4ccccc4c3N2C)c1=O [drawing 21]
